Ends that are not written are not given here.
Experiments:
[1] = Kyte & Doolittle; cited from earlier work
[2] = test system: undifferentiated hESCs (Oct-4 positive) and differentiated cells derived from embryoid bodies (Oct-4 negative); assay: Effect of ROCK inhibitor on cellular adhesion; type: cell-based, human
Method: Effect of ROCK inhibitor on cellular adhesion: A mixture of undifferentiated hESCs (Oct-4 positive) and differentiated cells derived from embryoid bodies (Oct-4 negative) was seeded onto self-assembled monolayer surfaces presenting the GBP […] (SEQ ID NO: 1) and the integrin binding peptide KGRGDS (SEQ ID NO: 5). For some experiments, cells were seeded onto polyacrylamide gels or glass coverslips presenting the […] (SEQ ID NO: 47) peptide. The cells were grown for 24 hours in mTeSR medium containing 5 μM ROCK inhibitor Y-27632 and then switched to mTeSR medium without ROCK inhibitor for an additional 24 hours. The cells were fixed and stained for Oct-4 and counterstained with phalloidin and DAPI. In some instances, cells were added to the surfaces without ROCK inhibitor.

hESCs [3] = assay: Culture on other chemically defined surfaces (streptavidin plates, polyacrylamide gels, glass coverslips); type: cell-based, human
From the text: Moreover, some hESCs were passaged to streptavidin-coated plates treated with biotinylated vitronectin GBP (SEQ ID NO:1) or polyacrylamide gels cross-linked to vitronectin GBP (SEQ ID NO:1).

pluripotent stem cells = assay: Number of cell divisions by fluorescent cell staining; type: cell-based, human
[4] = test system: hES cells (H9 and H13) and vector-free iPS cells (DF19-9); assay: Cell growth over two passages (Cell Counting Kit-8); type: cell-based, human
Method: hESCs (H9) were cultured on Matrigel, vitronectin, polylysine, […] (SEQ ID NO: 1), or KGRGDS (SEQ ID NO: 5) over two passages in mTeSR media supplemented with 5 μm ROCK inhibitor. Cell counts were calculated at each time point using Cell Counting Kit-8 (Dojindo Molecular Technologies, Inc., Rockville, Md.).

hESCs [5] = assay: Flow cytometry of pluripotent cell-specific markers after three passages on SAMs; type: cell-based, human; settings: for pluripotent cell-specific marker expression (Oct-4, SSEA-3, SSEA-4) after 3 passages: 3 passages on SAMs
Method: The density of the peptides on the surface varied from 0.5% to 25% (see, FIG. 1).
Regardless of the nature of the chemically defined surface or peptide(s) attached thereto, about 5×10^4 cells/ml were manually passaged to a fresh chemically defined surface every 5-7 days (i.e., at confluency) after treatment with an Enzyme-Free Cell Dissociation Buffer (Sigma; St. Louis, Mo.; a phosphate-buffered saline (PBS)+ethylenediamine tetraacetic acid (EDTA) 0.02% wt/vol) for 10-15 minutes. After three passages (about 21 days), the cells were evaluated for pluripotent cell-specific markers by flow cytometry.
hESCs were dissociated with 0.05% trypsin-EDTA with 2% chicken serum (Gibco). Cell surface marker staining was performed in PBS containing 2% BSA (wt/vol) at 4° C. for 30 minutes with directly conjugated antibodies against alkaline phosphatase (R&D Systems), Tra 1-60 (BD Biosciences), Tra 1-81 (BD Biosciences), SSEA-4 (BD Biosciences), SSEA-3 (BD Biosciences), SSEA-1 (R&D Systems) followed by a 30 minute fixation with 2% formaldehyde/PBS at room temperature.
For intracellular marker staining, hESCs were fixed with 2% formaldehyde/PBS at room temperature for 30 minutes. For Oct-4 staining, cells were permeabilized with saponin permeabilization buffer (SPB; 0.1% saponin, 0.1% BSA wt/vol in PBS) for 30 minutes at room temperature followed by incubation with an Oct-4 PE-conjugated antibody overnight. Cells were then washed 2 times with SPB before analysis.
Flow cytometry data was obtained using a FACSCalibur™ (BD Biosciences) and analyzed using FlowJo Software (Tree Star, Inc.; Ashland, Oreg.). The percentage of positive cells was established by comparing experimental cells to partially differentiated hESCs. Gating for positive and negative populations was established by analyzing the bimodal peaks of partially differentiated hESCs.

human ESCs (H9) = assay: Cell adhesion (CellTiter-Glo) with soluble heparin or chondroitinase ABC; type: cell-based; settings: 1 hour; for hESC binding in the presence of soluble heparin: soluble heparin 0.5 mg/mL
Method: To determine the effect of a soluble GAG on hESC binding to GBPs, hESCs were plated onto Matrigel-coated surfaces, vitronectin-coated surfaces, or surfaces presenting the heparin-binding peptide […] (SEQ ID NO: 1) in the presence or absence of soluble heparin (0.5 mg/mL). After 1 hour, the surfaces were washed and the cells lysed. The cell lysates were used to determine approximate cell numbers using Cell Titer Glo (Promega). The ratio of the mean luminescence of the cell lysates of cells plated in the presence of heparin versus those without heparin was expressed as percent cell binding for each surface.
To determine if glycosaminoglycans (GAGs) are required for GBP binding, human ESCs (H9) cultured on Matrigel were dissociated using an enzyme-free, Hanks'-based cell dissociation buffer (Sigma) for 10-15 minutes. Cells were resuspended in DMEM/F12 (Gibco), or DMEM/F12 supplemented with 2 units/mL chondroitinase ABC (Sigma), or 500 ug/mL heparin (Sigma). Cells treated with the GAG-degrading enzymes were incubated for 1 hour in suspension at 37° C. Cell suspensions were seeded onto Matrigel-coated surfaces, recombinant vitronectin-coated surfaces (10 μg/mL, R&D Systems), or SAMs presenting the peptide […] (SEQ ID NO: 1) at a 5% surface density. After 1 hour, surfaces were washed 3 times with PBS and the cells were lysed with M-PER buffer (Thermo Fisher Scientific, Inc., Rockford, Ill.). The cell lysate was mixed with CellTiter-Glo (Promega) to determine the number of viable cells in culture based on the presence of ATP. The luminescence was measured on 20/20^n luminometer (Turner Biosystems, Inc., Sunnyvale Calif.). • Cell Growth: […]

hESCs [6] = assay: Initial cell survival on SAMs with heregulin supplement; type: cell-based, human; settings: 10 ng/ml in mTeSR1
Method: hESCs were passaged to SAMs of peptide-AT conjugates on gold in mTeSR™1 optionally supplemented with 10 ng/ml heregulin-β1 (Peprotech; Rocky Hill, N.J.) and 5 μM Y-27632 (Calbiochem; San Diego, Calif.). […] Some surfaces presented peptide-AT conjugates of only vitronectin GBP (SEQ ID NO:1), fibronectin GBP (SEQ ID NO:2) or bone sialoprotein GBP (SEQ ID NO:3) Alternatively, some surfaces presented peptide-AT conjugates of only the integrin-binding peptide (SEQ ID NO:5), another bioactive peptide derived from fibronectin (SEQ ID NO:6), the FGF receptor binding peptide (SEQ ID NO:4), the laminin-derived bioactive peptide (SEQ ID NO:7), […] (SEQ ID NO: 8) or […] (SEQ ID NO: 9). Furthermore, some surfaces presented separate peptide-AT conjugates of the integrin-binding peptide (SEQ ID NO:5) and FGF receptor binding peptide (SEQ ID NO:4); the integrin-binding peptide (SEQ ID NO:5) and vitronectin GBP (SEQ ID NO:1); the integrin-binding peptide (SEQ ID NO:5) and bioactive peptide derived from fibronectin (SEQ ID NO:6); and the vitronectin GBP (SEQ ID NO:1) and […] (SEQ ID NO: 9). The density of the peptides on the surface varied from 0.5% to 25% (see, FIG. 1).

[7] = 24 hours with 5 μM, then 24 hours without

CC(C)[C@H](N)C(=O)O [V, valine]
Hydropathy index [1]: 4.2

N[C@@H](Cc1ccccc1)C(=O)O [F, phenalalanine]
Hydropathy index [1]: 2.8

N[C@@H](CCC(=O)O)C(=O)O [E]
Hydropathy index [1]: −3.5

C[C@@H](N)[C@H]1CC[C@H](C(=O)Nc2ccncc2)CC1.Cl.Cl [ROCK inhibitor, (+)-(R)-trans-4-(1-aminoethyl)-N-(4-pyridyl)cyclohexanecarboxamide dihydrochloride]
attachment of differentiated cells after removal of ROCK inhibitor [2, 7]: remained attached and viable
attachment of undifferentiated cells after removal of the ROCK inhibitor [2, 7]: significant detachment
Oct-4 positive undifferentiated cells among adherent cells when seeded without the ROCK inhibitor ([2]; cells added to the surfaces without ROCK inhibitor): few of these cells were Oct-4 positive

N[C@@H](CS)C(=O)O [C]
Hydropathy index [1]: 2.5

N[C@@H](Cc1ccc(O)cc1)C(=O)O [Y]
Hydropathy index [1]: −1.3

N[C@@H](CO)C(=O)O [S]
Hydropathy index [1]: −0.8

C[C@H](N)C(=O)O [A, alanine]
Hydropathy index [1]: 1.8

N[C@@H](Cc1c[nH]c2ccccc12)C(=O)O [W]
Hydropathy index [1]: −0.9

NCCCC[C@H](N)C(=O)O [K, lysine]
Hydropathy index [1]: −3.9

C[C@@H](O)[C@H](N)C(=O)O [T]
Hydropathy index [1]: −0.7

NC(=O)C[C@H](N)C(=O)O [N]
Hydropathy index [1]: −3.5

CGKKQRFRHRNRKG (not fully specified (C-terminus); also: conjugated to polyacrylamide or glass; listed as Homo sapiens) [peptide conjugated to polyacrylamide gels or glass coverslips]
cell adhesion and growth on non-SAM substrate (hESCs [3]; compared with SAMs): supported cell adhesion and growth comparable to SAMs

N=C(N)NCCC[C@H](N)C(=O)O [R, arginine]
Hydropathy index [1]: −4.5

biotinylated SEQ ID NO:1: streptavidin-coated plates treated with biotinylated vitronectin GBP (SEQ ID NO:1) (GKKQRFRHRNRKG; not fully specified (C-terminus); also: biotinylated, site not given here; listed as Homo sapiens)
cell adhesion and growth on non-SAM substrate (hESCs [3]; compared with SAMs): supported cell adhesion and growth, although not to the same extent
cell death when ROCK inhibitor is omitted (hESCs [3]; streptavidin-coated plates): without observable increase in cell death
colony spreading (hESCs [3]; streptavidin-coated plates, compared with SAMs): lower than on SAMs

CC[C@H](C)[C@H](N)C(=O)O [I, isoleucine]
Hydropathy index [1]: 4.5

KGRGDS (not fully specified (C-terminus); listed as Homo sapiens)
number of cell divisions (pluripotent stem cells): fewer cell divisions
plating efficiency after 24 hours [4]: lowest plating efficiency
support of self-renewal (hESCs [5]; 3 passages): insufficient to support self-renewal
pluripotent cell-specific marker expression (Oct-4, SSEA-3, SSEA-4) after 3 passages (hESCs [5]): significantly lower levels of pluripotent cell-specific markers
pluripotent cell-specific marker expression (Oct-4, SSEA-3, SSEA-4) after 3 passages (hESCs [5]; listed as RGD-presenting surfaces): fewer cells in the population displayed markers of pluripotency
cell growth rate on surface (hESCs [5]; compared with GAG-binding peptide surfaces): much more slowly

heparin [reference compound]
hESC binding in the presence of soluble heparin (human ESCs (H9)): inhibited adhesion

vitronectin: recombinant vitronectin-coated surfaces (10 μg/mL, R&D Systems)
number of cell divisions (pluripotent stem cells): fewer cell divisions
adhesion of cells treated with chondroitinase ABC (human ESCs (H9); 2 units/mL chondroitinase ABC, 5% surface density): maintained their ability to adhere
hESC binding in the presence of soluble heparin (human ESCs (H9)): not
plating efficiency after 24 hours [4]: equivalent
cell numbers after each passage ([4]; two passages, mTeSR with ROCK inhibitor): Increased cell numbers

N[C@@H](CC(=O)O)C(=O)O [D]
Hydropathy index [1]: −3.5

CSCC[C@H](N)C(=O)O [M, methionine]
Hydropathy index [1]: 1.9

heregulin
initial cell survival (hESCs [6]): modest improvement

N[C@@H](Cc1c[nH]cn1)C(=O)O [H, histidine]
Hydropathy index [1]: −3.2
